The structures appear in SMILES notation.

Our source for the viability, IC50 and melting point values is paper PMC9792171, “Design and synthesis of new thiazolidinone/uracil derivatives as antiproliferative agents targeting EGFR and/or BRAF^V600E” (Frontiers in Chemistry, 2022).

Data set [1] is described as follows: Cell viability assay (MTT), MCF-10A. It counts as cell-based. The note with it: human, MCF-10A mammary gland epithelial cells, MCF-10A cells, incubated 4 days. On the procedure: To test the viability of new compounds, the human mammary gland epithelial (MCF-10A) cell line was used ([Youssif et al., 2019]; [Mahmoud et al., 2022]). MCF-10A cells were incubated with compounds 3a-f and 5a-l for 4 days before being tested for viability using the MTT assay.
MTT assay was carried out to study the effect of compounds on mammary epithelial cells (MCF-10A) (Youssif, B. G. M. et al., 2019; Mahmoud, M. A., et al., 2022). The medium in which cells were propagated contained Dulbecco's modified Eagle's medium (DMEM)/ Ham's F-12 medium (1:1) supplemented with epidermal growth factor (20 ng/mL), hydrocortisone (500 ng/mL), insulin (10 μg/mL), 2 mM glutamine and 10% foetal calf serum. After every 2-3 days, the cells were passaged using trypsin ethylenediamine tetra acetic acid (EDTA). The cells were seeded at a density of 10^4 cells mL^-1 in flat-bottomed culture plates containing 96 wells each. After 24 h, medium was removed from the plates and the compounds in (in 0.1% DMSO) were added (in 200 μL medium to yield a final concentration of 0.1% v/v) to the wells of plates. A single compound was designated with four wells followed by incubation of plates for 96h at 37°C. After incubation, medium was removed completely from the plates followed by addition of MTT (0.4 mg/mL in medium) to each well and subsequent incubation of plates for 3h. MTT (along with the medium) was removed and DMSO (150μL) was added to each well of the culture plates, followed by vortexing and subsequent measurement of absorbance (at 540 nm) using microplate reader. The data are shown as percentage inhibition of proliferation in comparison with controls containing 0.1% DMSO.

Data set [2] has as its system MCF-7 (breast cancer cell line). Description: Antiproliferative MTT assay, MCF-7. It is filed as cell-based. The note with it: Homo sapiens, MCF7; MCF-7, MTT; read-out: Antiproliferative activity IC50 ± SEM (nM) MCF-7. As to the method: Using the MTT assay ([Abdelrahman et al., 2017]; [El-Sherief et al., 2018]) and doxorubicin as the reference drug, 3a-f and 5a-l were tested for antiproliferative activity against four human cancer cell lines: Panc-1 (pancreas cancer cell line), MCF-7 (breast cancer cell line), HT-29 (colon cancer cell line), and A-549 (epithelial cancer cell line).
To explore the antiproliferative potential of compounds MTT assay was performed according to previously reported procedure (El-Sherief, H.A.M., et al., 2018; Abdelrahman, M. H., et al., 2017) using different cell lines to explore the antiproliferative potential of compounds propidium iodide fluorescence assay was performed using different cell lines. To calculate the total nuclear DNA, a fluorescent dye (propidium iodide, PI) is used which can attach to the DNA, thus offering a quick and precise technique. PI cannot pass through the cell membrane and its signal intensity can be considered as directly proportional to quantity of cellular DNA. Cells whose cell membranes are damaged or have changed permeability are counted as dead ones. The assay was performed by seeding the cells of different cell lines at a density of 3000-7500 cells/well (in 200µl medium) in culture plates followed by incubation for 24h at 37 °C in humidified 5% CO2/95% air atmospheric conditions. The medium was removed; the compounds were added to the plates at 10 µM concentrations (in 0.1% DMSO) in triplicates, followed by incubation for 48 h. DMSO (0.1%) was used as control. After incubation, medium was removed followed by the addition of PI (25 µl, 50µg/mL in water/medium) to each well of the plates. At -80 °C, the plates were allowed to freeze for 24 h, followed by thawing at 25 °C. A fluorometer (Polar-Star BMG Tech) was used to record the readings at excitation and emission wavelengths of 530 and 620 nm for each well. The percentage cytotoxicity of compounds was calculated using the following formula: […]
A general note: Tetrazolium assays rely on reduction of a dye to a coloured formazan, in cell work by metabolically active cells.

In general, viability refers to the share of living cells, or the viability signal relative to a control. Low readings indicate more harm to the cells, high ones less harm to the cells. A word on the IC50: it is the concentration needed to halve the response being measured. In the case of `CCOC(=O)/C=C1\S/C(=N\c2c[nH]c(=O)[nH]c2=O)N(c2ccc(C)cc2)C1=O` [Compound 5b, (Z)-Ethyl-2-((Z)-2-((2,4-dioxo-1,2,3,4-tetrahydropyrimidin-5-yl)imino)-4-oxo-3-(p-tolyl)thiazolidin-5-ylidene)acetate], in data set [1], the viability at 4 days, 50 µM turned out to be 92%. Moreover, the IC50 in data set [2] is 1100 ± 100 nM.
The term melting point denotes the temperature, or range, at which the solid turns liquid. In turn, `COC(=O)/C=C1\S/C(=N\c2c[nH]c(=O)[nH]c2=O)N(Cc2ccccc2)C1=O` [Compound 5j, (Z)-Methyl-2-((Z)-3-benzyl-2-((2,4-dioxo-1,2,3,4-tetrahydropyrimidin-5-yl)imino)-4-oxothiazolidin-5-ylidene)acetate] came in with a melting point of 306 to 308 °C. In data set [1], the viability at 4 days, 50 µM was 89%. Further, the IC50 in data set [2] is 900 ± 100 nM.
As for `CCOC(=O)/C=C1\S/C(=N\c2c[nH]c(=O)[nH]c2=O)N(c2cccc(OC)c2)C1=O` [Compound 5c, (Z)-Ethyl-2-((Z)-2-((2,4-dioxo-1,2,3,4-tetrahydropyrimidin-5-yl)imino)-3-(3-methoxyphenyl)-4-oxo-thiazolidin-5-ylidene)acetate], the melting point fell in the range of 330 to 332 °C. In data set [1], this compound displayed a viability at 4 days, 50 µM of 96%. The IC50 in data set [2] turned out to be 1600 ± 100 nM.
For `COC(=O)/C=C1\S/C(=N\c2c[nH]c(=O)[nH]c2=O)N(c2cccc(OC)c2)C1=O` [Compound 5i, (Z)-Methyl-2-((Z)-2-((2,4-dioxo-1,2,3,4-tetrahydropyrimidin-5-yl)imino)-3-(3-methoxyphenyl)-4-oxothiazolidin-5-ylidene)acetate] the same measures were 322 to 324 °C, 89% and 1000 ± 80 nM.
For `COc1cccc(NC(=S)Nc2c[nH]c(=O)[nH]c2=O)c1` [Compound 3c, 1-(2,4-Dioxo-1,2,3,4-tetrahydropyrimidin-5-yl)-3-(3-methoxyphenyl)thiourea], the melting point was in the range of 350 to 352 °C. Moreover, in data set [1], the viability at 4 days, 50 µM was 89%. The IC50 in data set [2] stood at 1400 ± 100 nM.
The compound `COC(=O)/C=C1\S/C(=N\c2c[nH]c(=O)[nH]c2=O)N(c2ccc(C)cc2)C1=O` [Compound 5h, (Z)-Methyl-2-((Z)-2-((2,4-dioxo-1,2,3,4-tetrahydropyrimidin-5-yl)imino)-4-oxo-3-(p-tolyl)-thiazolidin-5-ylidene)acetate] displayed a melting point of 308 to 310 °C. In addition, the viability at 4 days, 50 µM in data set [1] was 92%. The IC50 in data set [2] is 1700 ± 100 nM.
